Measured values as given in article PMC11596392, “Enhanced Antibacterial, Anti-Inflammatory, and Antibiofilm Activities of Tryptophan-Substituted Peptides Derived from Cecropin A-Melittin Hybrid Peptide BP100” (Molecules, 2024).
Where no end group is shown, it is not given here.

Legend:
S. aureus (KCTC 1621) = assay type: cell-based, Staphylococcus aureus; conditions: broth microdilution in MHB, 37 °C, 24 h, 100% inhibition of growth
Method: (§1) The antibacterial efficacy of the synthesized peptides was evaluated by determining the minimal inhibitory concentrations (MICs) against six standard bacterial strains and five drug-resistant bacterial strains using the Clinical and Laboratory Standards Institute (CLSI) microdilution method. Melittin served as the positive control.
(§2) The minimal inhibitory concentrations (MICs) of the peptides against bacterial strains were determined using a modified broth-microdilution method in accordance with the National Committee for Clinical Laboratory Standards (NCCLS) guidelines. Overnight cultures were diluted in cation-adjusted Mueller–Hinton Broth (MHB) to achieve an inoculum density of 2 × 10^6 CFU/mL. A two-fold serial dilution of the peptide solution (100 μL) was introduced into microtiter plates, followed by the addition of 100 μL of bacterial suspension. The plates were then incubated at 37 °C for 24 h to determine the MICs. Wells containing only culture media served as negative controls, while those with added bacteria functioned as positive controls. The MIC, expressed in μM, was defined as the lowest peptide concentration that prevented visible bacterial growth. This protocol was also employed to determine MICs in the presence of physiological salts (150 mM of NaCl, 4.5 mM of KCl, 6 μM of NH4Cl, 1 mM of MgCl2, 2.5 mM of CaCl2, and 4 μM of FeCl3) and 20% human serum to assess the peptides’ efficacy under conditions more closely resembling physiological environments. All experiments were conducted in triplicate and repeated three times independently to ensure reproducibility and statistical significance of the results.

[1] = system: S. epidermidis (KCTC 1917); assay type: cell-based, Staphylococcus epidermidis; conditions: broth microdilution in MHB, 37 °C, 24 h, 100% inhibition of growth
Method: as §1, §2

B. subtilis (KCTC 3068) = assay type: cell-based, Bacillus subtilis; conditions: broth microdilution in MHB, 37 °C, 24 h, 100% inhibition of growth
Method: as §1, §2

MRSA (CCARM 3089) = assay type: cell-based, methicillin-resistant Staphylococcus aureus; conditions: broth microdilution in MHB, 37 °C, 24 h, 100% inhibition of growth
Method: as §1, §2

MRSA (CCARM 3090) = assay type: cell-based, methicillin-resistant Staphylococcus aureus; conditions: broth microdilution in MHB, 37 °C, 24 h, 100% inhibition of growth
Method: as §1, §2

VREF (ATCC 51559) = assay type: cell-based, vancomycin-resistant Enterococcus faecium; conditions: broth microdilution in MHB, 37 °C, 24 h, 100% inhibition of growth
Method: as §1, §2

E. coli (KCTC 1682) = assay type: cell-based, Escherichia coli; conditions: broth microdilution in MHB, 37 °C, 24 h, 100% inhibition of growth
Method: as §1, §2

[2] = system: P. aeruginosa (KCTC 1637); assay type: cell-based, Pseudomonas aeruginosa; conditions: broth microdilution in MHB, 37 °C, 24 h, 100% inhibition of growth
Method: as §1, §2

[3] = system: S. typhimurium (KCTC 1926); assay type: cell-based, Salmonella typhimurium; conditions: broth microdilution in MHB, 37 °C, 24 h, 100% inhibition of growth
Method: as §1, §2

MDRPA (CCARM 2095) = assay type: cell-based, multidrug-resistant Pseudomonas aeruginosa; conditions: broth microdilution in MHB, 37 °C, 24 h, 100% inhibition of growth
Method: as §1, §2

MDRPA (CCARM 2109) = assay type: cell-based, multidrug-resistant Pseudomonas aeruginosa; conditions: broth microdilution in MHB, 37 °C, 24 h, 100% inhibition of growth
Method: as §1, §2

[4] = system: sheep red blood cells (sRBCs); experiment: Hemolytic activity assay; assay type: cell-based; conditions: 4% (v/v) sheep red blood cells in PBS, 1 h, 37 °C; 1 to 256 μM tested
Method: To assess toxicity in mammalian cells, we evaluated the hemolytic activity of the peptides on sheep red blood cells (sRBCs). […] The therapeutic index (TI), a measure commonly employed to evaluate the cell selectivity of antibacterial agents, was calculated as the ratio of the concentration causing 10% hemolysis of sRBCs (HC10) to the GM [19, 20, 21, 22].
The hemolytic activity of the peptides was tested through hemolysis assay of sheep red blood cells (sRBCs). The sRBCs were diluted in PBS to achieve a 4% (v/v) concentration. Subsequently, 100 μL of peptide solutions, ranging from 1 to 256 μM, was dispensed into a 96-well plate containing an equal volume of the erythrocyte suspension. After incubating for 1 h at 37 °C and centrifuging at 1000× g for 10 min, 100 μL of the supernatant was transferred to a new 96-well plate. Hemoglobin release was quantified using a microplate reader at a wavelength of […]. The percentage of hemolysis was calculated using percentage hemolysis = 100 × [[…]], where A represents the absorbance of the peptide-treated sample at 540 nm, A0 corresponds to the absorbance value representing 0% hemolysis in PBS, and At corresponds to the absorbance value representing 100% hemolysis in 0.1% Triton X-100.

[5] = system: MDRPA (CCARM 2095) biofilm formation; assay type: cell-based, multidrug-resistant Pseudomonas aeruginosa; conditions: overnight 37 °C, crystal violet staining; for MBIC50: 50% inhibition; for MBIC90: 90% inhibition
Text: Bacterial biofilms, comprising communities of bacterial cells encased in a matrix of polysaccharides and nucleic acids, present a significant challenge for conventional antibiotics due to the protective nature of this matrix. Biofilms can enhance bacterial resistance to antibiotics by up to 1000-fold compared to planktonic bacteria. To address this issue, there is an urgent need to discover and develop novel alternative therapeutic agents capable of effectively combating biofilm-forming bacteria. […] Our research specifically focused on evaluating the impact of BP100 and its analogs on biofilm formation and eradication using multidrug-resistant Pseudomonas aeruginosa (MDRPA), a common pathogen responsible for biofilm-mediated nosocomial infections. The adhered biomass was quantified using crystal violet staining, and the minimum biofilm inhibitory concentration (MBIC90) was determined as the lowest concentration required to inhibit 90% of biofilm growth relative to the positive control. […] Human cathelicidin LL-37 is well-documented for its potent antibiofilm properties.
The inhibitory activity of the peptides on biofilm formation was evaluated against multidrug-resistant Pseudomonas aeruginosa (MDRPA) (CCARM 2095) using a biofilm inhibition assay to determine the minimal biofilm inhibitory concentration (MBIC). Peptide solutions were serially diluted in sterile water and aliquoted (100 μL) into a 96-well Costar polypropylene plate (Corning Inc., Corning, NY, USA). An equal volume of MDRPA suspension in Mueller–Hinton Broth (MHB), adjusted to 1 × 10^6 CFU/mL, was added to each well, resulting in a final inoculum density of 5 × 10^5 CFU/mL. Following overnight incubation at 37 °C, bacterial growth was quantified by measuring the optical density (OD) at 595 nm. Planktonic cells were then discarded, and the attached biofilms were washed thrice with distilled water. Residual biofilms were stained with 0.1% crystal violet for five minutes, washed to remove non-adherent dye, and subsequently destained using 95% ethanol. The OD at 595 nm was measured again to assess the biofilm mass. Control wells contained untreated bacteria. The MBIC was defined as the lowest peptide concentration that inhibited any residual crystal violet staining or biofilm formation. All assays were conducted in triplicate to ensure reproducibility. This method allows for the quantitative assessment of the peptides’ ability to prevent biofilm formation, a critical virulence factor in many bacterial infections, particularly those caused by multidrug-resistant strains.

Substance | Minimal Inhibitory Concentration (MIC) (S. aureus (KCTC 1621)) [µM] | Minimal Inhibitory Concentration (MIC) [1] [µM] | Minimal Inhibitory Concentration (MIC) (B. subtilis (KCTC 3068)) [µM] | Minimal Inhibitory Concentration (MIC) (MRSA (CCARM 3089)) [µM] | Minimal Inhibitory Concentration (MIC) (MRSA (CCARM 3090)) [µM] | Minimal Inhibitory Concentration (MIC) (VREF (ATCC 51559)) [µM] | Minimal Inhibitory Concentration (MIC) (E. coli (KCTC 1682)) [µM] | Minimal Inhibitory Concentration (MIC) [2] [µM] | Minimal Inhibitory Concentration (MIC) [3] [µM] | Minimal Inhibitory Concentration (MIC) (MDRPA (CCARM 2095)) [µM] | Minimal Inhibitory Concentration (MIC) (MDRPA (CCARM 2109)) [µM] | HC10 (peptide concentration that caused 10% hemolysis) [4] [µM] | MBIC50 [5] [µM] | MBIC90 [5] [µM]
KKLWKKILKWL-NH2 [BP8] | 4 | 2 | 8 | 16 | 16 | 16 | 2 | 16 | 4 | 8 | 16 | >256 | 4 to 8 | 8
KKLWKKIWKYL-NH2 [BP7] | 2 | 2 | 4 | 8 | 32 | 32 | 4 | 8 | 2 | 8 | 4 | >256 | 4 to 8 | 8
KKLWKKIWKYW-NH2 [BP15] | 2 | 4 | 4 | 16 | 64 | 64 | 4 | 8 | 4 | 16 | 8 | >256 | 4 to 8 | 8
KKLWKKWLKYW-NH2 [BP14] | 2 | 2 | 4 | 16 | 32 | 64 | 4 | 8 | 8 | 16 | 8 | >256 | 8 to 16 | 16
KKWFKKILKWL-NH2 [BP6] | 2 | 2 | 4 | 8 | 16 | 8 | 4 | 16 | 4 | 8 | 16 | >256 | 4 to 8 | 8
